Tests used:
mice [1] = experiment: Psychotropic activity test: motor activity; type: in vivo; conditions: intraperitoneally, dose 1/20 of LD
mice [2] = experiment: Psychotropic activity test: arecoline induced hyperkynesis; type: in vivo; conditions: intraperitoneally, dose 1/20 of LD
in vivo = conditions: intraperitoneal injection, Table 5; for LD50: in vivo, ip, read-out: LD50 (mg/kg) by Kerber
Method: (§1) Psychoneurotropic activity of the declared compounds and their influence on learning and memory were observed using unbred male (18-20 g) mice and 180-200 g) rats, held at standard conditions (room temperature 21°-22° C., 12-hours lighting schedule, food and water ad libitum).
Acute toxicity was studied by the method of Kerber with intra peritoneal drug injection.

[3] = target: T1, Acetylcholinesterase, enzyme from human erythrocytes (Homo sapiens, UniProt P22303); experiment: Acetylcholinesterase inhibition, spectrophotometric technique of Ellman; type: biochemical; conditions: Acetylcholinesterase inhibition IC50 (M), enzyme from human erythrocytes; Table 5
T1 construct: on the enzyme from human erythrocytes; from tissue; host or cells: human erythrocytes
T1 sequence (P22303-2 with tags, fused parts or gaps limits assumed): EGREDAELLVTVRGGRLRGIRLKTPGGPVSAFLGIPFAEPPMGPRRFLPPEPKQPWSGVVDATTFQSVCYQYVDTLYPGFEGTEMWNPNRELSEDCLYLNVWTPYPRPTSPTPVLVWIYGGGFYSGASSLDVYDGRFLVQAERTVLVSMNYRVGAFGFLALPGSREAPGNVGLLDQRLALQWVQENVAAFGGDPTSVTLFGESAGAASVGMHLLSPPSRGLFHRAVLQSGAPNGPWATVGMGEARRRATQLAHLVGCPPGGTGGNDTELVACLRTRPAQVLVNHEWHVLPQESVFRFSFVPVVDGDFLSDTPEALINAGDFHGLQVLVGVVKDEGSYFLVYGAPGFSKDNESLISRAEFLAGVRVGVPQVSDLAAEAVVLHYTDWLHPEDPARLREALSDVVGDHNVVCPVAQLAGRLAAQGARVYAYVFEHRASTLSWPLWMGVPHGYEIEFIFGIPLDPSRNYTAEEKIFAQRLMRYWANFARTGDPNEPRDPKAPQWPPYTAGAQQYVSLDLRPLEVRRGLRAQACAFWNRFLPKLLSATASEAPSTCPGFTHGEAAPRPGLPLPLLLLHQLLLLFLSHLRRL
Method: Acetylcholinesterase inhibition under the action of preparations was assessed by the spectrophotometric technique of Ellman on the enzyme from human erythrocytes.

rats = experiment: Passive avoidance test in normal rats, 50% acquisition; type: in vivo; conditions: for change in vivo at 0.1 mg/kg: Rattus norvegicus, ip, 20 min, read-out: Increase of the number of correct trails (% to control). Passive avoidance test (rats); for change in vivo at 0.1 mg/kg / Increase of the number of correct trails (% to control). Passive avoidance test (rats): rats, 0.1 mg/kg i.p. 20 min before training, piracetam 250 mg/kg 60 min before training
Method: as §1
The influence of drugs on reflex conditioning in rats was studied by the passive avoidance test in conditions of 50% acquisition. The effect of the compound was estimated by the increase of the relative number of learned animals with respect to that of control group. […] The other reference drug--noothropic agent piracetam--was given in the dose 250 mg/kg 60 min before training. Amnestic syndrome was stimulated by 20 days application of Sc at the daily dose of 1 mg/kg intraperitoneally. […] The passive avoidance test was performed within 24 hours after the last application of test preparations.

mice [4] = experiment: Step-down test, scopolamine induced amnesia; type: in vivo
Method: as §1

rat adipocytes [5] = experiment: Lipid content in incubation medium after incubation of adipocytes; type: cell-based; conditions: incubation medium; Table 12
Method: (§2) Lipid regulative activity of the declared compounds--derivatives of 9-amino acridine--were evaluated in vitro[…] using rat adipocytes. Adipocytes were separated from adipose tissue of testis appendages of adult male rats. Lipid composition analysis was performed by the method of thin-layer chromatography.
(§3) Quantitative analysis of phospholipids (PL), mono- and diacylglycerides (MDG), triacylglycerides (TG), free fatty acids (FFA), free cholesterol (FCL), and methyl esters of fatty acids (MEFA) was performed by the method of spectrophotometry.

rat adipocytes [6] = experiment: Lipid composition of adipocytes after incubation with compounds; type: cell-based; conditions: for FFA/TG in adipocytes / PL/CL in adipocytes / PL/TG in adipocytes: cells, Table 11; for FFAc/FFAm / PLc/PLm: distribution between cells and incubation medium, Table 13
Method: as §2, §3

| SMILES | Motor activity increment (% to control) (mice [1]) | Increase of duration of arecoline induced hyperkynesis (% to control) (mice [2]) | LD50 (in vivo) | IC50 [3] | change in vivo at 0.1 mg/kg (rats) | LD50 (mg/kg) by Kerber (in vivo) | Performance of normal rats in passive avoidance test (rats; normal rats) | Increase of the number of correct trails (% to control). Passive avoidance test (rats) (rats) | Antiamnestic activity in Step-down test (mice [4]) | Antiamnestic activity in Step-down test (% of mice with latency > cut off) (mice [4]) | FFA/TG in incubation medium (rat adipocytes [5]) | PL/CL in incubation medium (rat adipocytes [5]) | PL/TG in incubation medium (rat adipocytes [5]) | FFA/TG in adipocytes (rat adipocytes [6]) | PL/CL in adipocytes (rat adipocytes [6]) | PL/TG in adipocytes (rat adipocytes [6]) | FFAc/FFAm (rat adipocytes [6]) | PLc/PLm (rat adipocytes [6]) | Improving learning and memory compared with amiridine and piracetam (rats; normal rats, passive avoidance test) |
| --- | --- | --- | --- | --- | --- | --- | --- | --- | --- | --- | --- | --- | --- | --- | --- | --- | --- | --- | --- |
| Cc1cccc2c(N)c3c(nc12)CC(C)(C)CC3=O [IVl] | 57 % to control | 0 % to control | 617 ± 23.7 mg/kg | 6.3e-07 M | 0% |  |  |  |  |  |  |  |  |  |  |  |  |  |  |
| CCCCNc1c2c(nc3ccccc13)CC(C)(C)C=C2 [VIIc] | 20 % to control | 15 % to control | 33.3 ± 4.4 mg/kg | 6e-07 M | 25% |  |  |  |  |  |  |  |  |  |  |  |  |  |  |
| CC1(C)C=Cc2c(nc3ccccc3c2NCc2ccccc2)C1 [VIIi] | 20 % to control | 15 % to control |  |  |  | 500 mg/kg | statistically significantly improved performance of normal rats | 35 % to control | pronounced antiatonestic activity, comparable with that of amiridine and tacrine | 25 % of mice |  |  |  |  |  |  |  |  |  |
| CC1(C)C=Cc2c(nc3ccccc3c2NCc2ccccc2)C1 [VIIj] |  |  |  |  |  |  |  |  |  |  | 1.07 | 0.89 | 0.81 | 1.00 | 0.83 | 0.86 | 0.93 | 1.08 |  |
| CC1(C)C=Cc2c(nc3ccccc3c2NCc2ccccc2)C1 [VIIk] | 20 % to control | 20 % to control |  |  |  | 90.5 ± 8. mg/kg |  | 25 % to control |  |  | 1.10 | 0.96 | 0.84 | 0.93 | 0.61 | 0.58 | 0.95 | 0.78 |  |
| CC1(C)C=Cc2c(nc3ccccc3c2NCc2ccccc2)C1 [VIIl] | 10 % to control | 15 % to control |  |  |  | 116.7 ± 10.9 mg/kg |  | 40 % to control |  |  | 1.00 | 0.91 | 0.77 | 1.00 | 0.75 | 0.78 | 0.96 | 0.97 |  |
| CC1(C)Cc2nc3ccccc3c(N)c2C(O)C1 (stereo not drawn) [VIb] | 40 % to control | 66 % to control | 63.3 ± 8.8 mg/kg | 1.2e-06 M | 20% |  |  |  |  | 0 % of mice |  |  |  |  |  |  |  |  |  |
| CC1(C)Cc2nc3ccccc3c(NCc3ccccc3)c2C(O)C1 (stereo not drawn) [VIe, 9-benzylamino-3,3-dimethyl-1,2,3,4-tetrahydroacridine-1-ol] | 64 % to control | 15 % to control | 50 ± 8.6 mg/kg | 1.3e-06 M | 0% |  |  |  |  |  |  |  |  |  |  |  |  |  |  |
| CC1(C)Cc2nc3ccccc3c(NCc3ccc(Cl)cc3)c2C(O)C1 (stereo not drawn) [VIg] | 40 % to control | 36 % to control | 80 ± 2.7 mg/kg | 3e-06 M | 0% |  |  |  |  |  |  |  |  |  |  |  |  |  |  |
| CCCCNc1c2c(nc3ccccc13)CC(C)(C)CC2=O [Vaa] | 26 % to control | 25 % to control |  |  |  | 650.0 ± 11.3 mg/kg |  | 15 % to control | pronounced antiatonestic activity, comparable with that of amiridine and tacrine | 25 % of mice | 0.92 | 0.71 | 0.55 | 0.94 | 0.63 | 0.58 | 1.01 | 1.04 |  |
| Cc1ccc(CNc2c3c(nc4ccccc24)CC(C)(C)CC3=O)c(C)c1 [Vd] | 90 % to control | 0 % to control | > 1000 mg/kg | 1e-05 M | 50% |  | statistically significantly improved performance of normal rats |  |  | 20 % of mice |  |  |  |  |  |  |  |  | as effective in improving learning and memory as amiridine and piracetam |
| CNc1c2c(nc3ccccc13)CC(C)(C)CC2=O [Vh] | 40 % to control | 20 % to control | 65.8 ± 4.8 mg/kg | 4e-07 M | 0% |  |  |  |  |  |  |  |  |  |  |  |  |  |  |
| CCNc1c2c(nc3ccccc13)CC(C)(C)CC2=O [Vj] | 59 % to control | 20 % to control | 73.3 ± 8.6 mg/kg | 1.7e-06 M | 0% |  |  |  |  |  |  |  |  |  |  |  |  |  |  |
| CCCNc1c2c(nc3ccccc13)CC(C)(C)CC2=O [Vl] | 74 % to control | 30 % to control | 283 ± 35.7 mg/kg | 3e-06 M | 0% |  |  |  |  |  |  |  |  |  |  |  |  |  |  |
| CC(C)Nc1c2c(nc3ccccc13)CC(C)(C)CC2=O [Vn] | 76 % to control | 0 % to control | 70.2 ± 7.3 mg/kg | 6e-06 M | 0% |  |  |  |  |  |  |  |  |  |  |  |  |  |  |
| CC(C)CNc1c2c(nc3ccccc13)CC(C)(C)CC2=O [Vq] | 75 % to control | 0 % to control | 158 ± 21.9 mg/kg | 2e-06 M | 0% |  |  |  |  |  |  |  |  |  |  |  |  |  |  |
| CCN(CC)CCNc1c2c(nc3ccccc13)CC(C)(C)CC2=O [Vr] | 0 % to control | 26 % to control | 135 ± 8.2 mg/kg | 5e-05 M | 0% |  |  |  |  |  |  |  |  |  |  |  |  |  |  |

Reference: patent US5672707A (priority 1991, dated 1997)
